Experimental data published in patent US20140295012A1, “LATENT HUMAN IMMUNODEFICIENCY VIRUS REACTIVATION” (priority 2011, published 2014).

B1: HEXIM-1 (other, UniProt O94992 1-359, looked up)
chain: MAEPFLSEYQHQPQTSNCTGAAAVQEELNPERPPGAEERVPEEDSRWQSRAFPQLGGRPGPEGEGSLESQPPPLQTQACPESSCLREGEKGQNGDDSSAGGDFPPPAEVEPTPEAELLAQPCHDSEASKLGAPAAGGEEEWGQQQRQLGKKKHRRRPSKKKRHWKPYYKLTWEEKKKFDEKQSLRASRIRAEMFAKGQPVAPYNTTQFLMDDHDQEEPDLKTGLYSKRAAAKSDDTSDDDFMEEGGEEDGGSDGMGGDGSEFLQRDFSETYERYHTESLQNMSKQELIKEYLELEKCLSRMEDENNRLRLESKRLGGDDARVRELELELDRLRAENLQLLTENELHRQQERAPLSKFGD

What was measured:
[1] = test system: latently HIV-1 infected CA5 T cells; type: cell-based; conditions: CA5 cells pretreated with increasing concentrations
Procedure: Infection levels in the cell cultures were monitored by flow cytometric analysis of EGFP expression. Flow cytometric analysis was performed on a GUAVA EasyCyte (Millipore; Billerica, Mass.), or a LSRII (Becton & Dickinson; Franklin Lakes, N.J.).
Bacterial growth. Bacteria from various sources were isolated on TSA II agar plates containing 5% sheep blood. Bacterial isolates were then grown in RPMI 1640 medium supplemented with 10% FBS. After two days of incubation at 37° C. bacteria were pelleted and resuspended in RPMI medium to an optical density (OD600) of 8, aliquoted and frozen at −80° C. Unless otherwise indicated, Massilia timonae was grown in RPMI 1640 medium supplemented with 10% FBS. Typically, medium was inoculated with Massilia timonae from frozen stocks to an OD600 of 0.01. After 48 hours at 37° C., the culture was centrifuged at 3200 g to separate bacteria from the culture medium. Bacteria were resuspended in fresh medium to an OD600 of 8 and frozen to be used as references and stock cultures. The supernatant was then centrifuged at 10,000 g for 20 minutes and sterilized by passage through a 0.2 μm PVDF filter with low protein binding ability. HRF activity was determined by its ability to reactivate latent HIV-1 infection in CA5 cells. Only supernatants of which 6 μl reactivated infection in at least 60% of CA5 cells were used to study HRF properties.
Flow cytometry. Infection levels in the cell cultures were monitored by flow cytometric (FCM) analysis of GFP expression. FCM analysis was performed on a GUAVA EasyCyte (GUAVA Technologies, Inc.; Millipore; Billerica, Mass.) and a BD FACSCalibur or a LSRII (Becton & Dickinson; Franklin Lakes, N.J.). Cell sorting experiments were performed using a FACSAria™ Flow Cytometer (Becton&Dickinson). Data analysis was performed using either CellQuest (Becton&Dickinson) or GUAVA Express (GUAVA Technologies, Inc.).
To identify the optimal concentration of dactinomycin, CA5 T cells were pretreated with increasing concentrations of dactinomycin (0.0001 and 1 μg/ml), and then left untreated or stimulated with a sub-optimal concentration of HRF or TNF-α. Representative results for stimulation with HRF are depicted in FIG. 3. The chosen HRF concentration has only minimal HIV-1 reactivating effect by itself (15% reactivation over background). Twenty four hours after activator addition, levels of HIV-1 reactivation were determined as the percentage of GFP-positive cells using flow cytometric analysis, which allowed for the simultaneous determination of cell viability. […] Optimal pretreatment time was 18 hours. Maximum reactivation effects were seen 48 hours after stimulation.

[2] = test system: latently HIV-1 infected primary T cells; assay: Reactivation of latent HIV-1 infection in primary T cells (GFP); type: cell-based; conditions: 24 hours
Procedure: Latently HIV-1 infected primary T cells were treated for 24 hours with aclacinomycin (ACM) or dactinomycin (ActD), or with the anti-CD3 monoclonal antibody (mAb) OKT3. Reactivation levels were determined as a percentage of GFP-positive cells 24 hours after stimulation. Viability of the cells correlates with the size of the symbol.
To determine if aclacinomycin or dactinomycin were capable of reactivating a latent HIV-1 infection in primary T cells, latently HIV-1 infected primary T cells were treated with aclacinomycin or dactinomycin or with the anti-CD3 monoclonal antibody OKT3 for 24 hours. Reactivation of the latent HIV-1 infection was observed by increasing levels of GFP fluorescence.

[3] = molecular target: T1, positive transcription elongation factor (P-TEFb), a complex of CDK9 and Cyclin T1 (UniProt P50750 1-372; O60563 1-726); assay: glycerol gradient (10-45%) sedimentation of J89GFP cell lysates, Western blot of the fractions with anti-CDK9 and anti-HEXIM-1
T1 construct: also called CDK9/CycT1
T1 sequence (P50750 whole entry, chain 1 of 2): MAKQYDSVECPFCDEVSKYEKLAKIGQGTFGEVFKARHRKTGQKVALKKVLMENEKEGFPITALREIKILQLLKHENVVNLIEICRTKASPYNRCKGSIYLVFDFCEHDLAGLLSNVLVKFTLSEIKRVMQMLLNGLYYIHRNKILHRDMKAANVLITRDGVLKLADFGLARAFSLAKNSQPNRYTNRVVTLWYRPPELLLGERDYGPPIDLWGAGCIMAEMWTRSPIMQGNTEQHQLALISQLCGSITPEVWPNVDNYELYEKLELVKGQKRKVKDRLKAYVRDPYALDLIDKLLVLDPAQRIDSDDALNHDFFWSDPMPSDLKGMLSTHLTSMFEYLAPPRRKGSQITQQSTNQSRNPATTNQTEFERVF
T1 sequence (O60563 whole entry, chain 2 of 2): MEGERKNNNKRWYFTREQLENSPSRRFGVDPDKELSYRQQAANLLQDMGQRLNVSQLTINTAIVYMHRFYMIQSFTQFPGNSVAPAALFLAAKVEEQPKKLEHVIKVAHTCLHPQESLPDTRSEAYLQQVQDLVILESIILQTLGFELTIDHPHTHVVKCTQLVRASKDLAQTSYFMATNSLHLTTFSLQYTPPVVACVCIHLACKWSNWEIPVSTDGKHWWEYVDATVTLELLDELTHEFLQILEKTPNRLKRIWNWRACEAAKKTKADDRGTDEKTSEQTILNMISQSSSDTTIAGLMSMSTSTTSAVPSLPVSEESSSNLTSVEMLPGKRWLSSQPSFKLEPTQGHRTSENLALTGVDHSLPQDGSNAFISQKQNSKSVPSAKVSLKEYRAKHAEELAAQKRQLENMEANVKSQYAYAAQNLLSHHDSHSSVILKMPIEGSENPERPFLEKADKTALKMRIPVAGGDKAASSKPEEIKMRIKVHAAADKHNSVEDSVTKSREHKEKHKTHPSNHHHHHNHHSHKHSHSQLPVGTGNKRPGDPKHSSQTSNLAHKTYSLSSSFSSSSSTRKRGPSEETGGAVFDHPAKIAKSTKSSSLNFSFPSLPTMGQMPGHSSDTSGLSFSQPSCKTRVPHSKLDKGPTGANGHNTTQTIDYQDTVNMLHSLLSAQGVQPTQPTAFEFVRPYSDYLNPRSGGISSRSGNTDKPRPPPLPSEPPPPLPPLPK
Procedure: Each gradient fraction was separated on a 10% SDS-PAGE gel and transferred by Western blot. […] Band densities were determined using ImageJ and are presented as relative band density. […] Band densities were determined using ImageJ and are presented as relative band density.
Fractions were resolved on 10% SDS-PAGE and transferred to polyvinylidene fluoride membrane.
Each gradient fraction was separated on a SDS-PAGE gel and subjected to Western blotting.

Molecule	priming effect on HIV-1 reactivation by sub-optimal dose of HRF [1]	reactivation of latent HIV-1 infection [2]	binding result [3]
CC[C@@]1(O)C[C@H](O[C@H]2C[C@H](N(C)C)[C@H](O[C@H]3C[C@H](O)[C@H](O[C@H]4CCC(=O)[C@H](C)O4)[C@H](C)O3)[C@H](C)O2)c2c(cc3c(c2O)C(=O)c2c(O)cccc2C3=O)[C@H]1C(=O)OC [aclacinomycin]	strong priming effect	capable of reactivating latent HIV-1 infections	–
B1	–	–	binds
